Assay results: patent US9096585B2 (Icahn School of Medicine at Mount Sinai, priority 2010, dated 2015)

Test system: influenza viruses
Assay type: cell-based, influenza virus

Cc1[nH]c2ccc(-c3nnc(SCC(=O)N4CCCC4)o3)cc2c1C [Compound A3]
generation of A3-resistant influenza viruses: unsuccessful
